Non-standard residues stand in square brackets, D forms with d. Residues, ends and D or L forms follow the SMILES beside them. pS = N[C@@H](COP(=O)(O)O)C(=O)O
Legend:
KPNA4 ARM minor = target: T1, KPNA4 ARM minor (Homo sapiens, UniProt O00629); assay: FP displacement assay, KPNA4 ARM minor pocket; assay type: binding; settings: for IC50: Fig 3E, KPNA4 ARM minor, technical triplicates, read-out: IC50 values of displacement curves, with SEM; for Kd: minor pocket probe FITC-NCOR2 5 nM, 50 mM sodium phosphate pH 7.4, room temperature, at least three technical replicates, read-out: KD values ± SEM
T1 construct: 60-487; GST (cleaved yes); made in house; host or cells: Escherichia coli BL21-Gold(DE3)
Procedure: (§1) FP experiments were performed as described previously (Kliche et al, [2021]). Shortly, in order to monitor the binding event, FITC‐labelled peptides were used (excitation 495 nm, emission: 535 nm) and the FP signal was recorded in mP on a SpectraMax iD5 Multi‐Mode Microplate Reader (Molecular Devices) by measuring the emitted light in two angels. The measurements were performed at room temperature and prepared in nonbinding black half area 96‐well microplates (Corning®; 50 μl/well). For measuring direct binding, that is saturation curves, a 1:1 dilution series of protein domain (25 μl/well) was generated in 50 mM sodium phosphate buffer pH 7.4 and the measurement performed with 5 nM FITC‐labelled peptide (25 μl/well). The buffer‐corrected values were subsequently plotted with PRISM and fitted to the quadratic equation (Gianni et al, [2005]).
(§2) The 1:1 dilution series in this experiment was performed with the unlabelled peptide in 50 mM sodium phosphate buffer pH 7.4, so that each well‐contained unlabelled peptide (25 μl) at a certain concentration and pre‐formed complex (25 μl). The KD values of this indirectly monitored binding event were calculated as described previously (Nikolovska‐Coleska et al, [2004]). All measurements were at least in technical triplicates as well as biological duplicates when indicated. An amplitude shift between repeat measurements in the displacement experiments was occasionally observed due to variations in the protein preparations. If that was the case, the “active” protein concentration was back‐calculated according to the quadratic equation from the saturation curves performed in parallel. By comparing the active protein concentrations in the complex between different protein preparations, the amplitude was normalised.

KPNA4 ARM Major = target: T2, KPNA4 ARM Major (Homo sapiens, UniProt O00629); assay: FP displacement assay, KPNA4 ARM major pocket; assay type: binding; settings: for IC50: Fig 3E, KPNA4 ARM major, technical triplicates, read-out: IC50 values of displacement curves, with SEM; for Kd: major pocket probe FITC-MYC 5 nM, 50 mM sodium phosphate pH 7.4, room temperature, at least three technical replicates, read-out: KD values ± SEM
T2 construct: 60-487; GST (cleaved yes); made in house; host or cells: Escherichia coli BL21-Gold(DE3)
Procedure: as §1, §2

KPNA4 ARM = assay: Phosphomimetic ProP-PD selection, KPNA4 ARM; assay type: binding, human; settings: phosphomimetic enrichment score of the wild-type/phosphomimetic (E) pair at the phosphosite, PM_HD2 phage selection; same score in the major and minor pocket; P-value in brackets not taken

T1 sequence (O00629 60-487): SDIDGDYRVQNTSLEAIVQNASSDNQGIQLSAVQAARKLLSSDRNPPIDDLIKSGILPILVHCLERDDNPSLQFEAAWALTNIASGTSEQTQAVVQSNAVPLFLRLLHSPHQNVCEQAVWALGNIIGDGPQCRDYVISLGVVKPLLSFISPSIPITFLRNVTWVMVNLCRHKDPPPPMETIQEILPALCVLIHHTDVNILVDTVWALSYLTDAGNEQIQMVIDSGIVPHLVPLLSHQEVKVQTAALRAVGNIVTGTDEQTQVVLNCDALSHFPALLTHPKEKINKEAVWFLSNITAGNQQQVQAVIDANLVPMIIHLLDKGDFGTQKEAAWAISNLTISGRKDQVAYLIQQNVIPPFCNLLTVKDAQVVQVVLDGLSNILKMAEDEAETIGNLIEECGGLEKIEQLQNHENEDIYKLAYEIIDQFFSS
T2 sequence (O00629 60-487): as above

SMILES: CC(=O)N[C@@H](CC(N)=O)C(=O)N[C@@H](Cc1ccc(O)cc1)C(=O)N[C@@H](C)C(=O)N1CCC[C@H]1C(=O)N1CCC[C@H]1C(=O)N[C@H](C(=O)N[C@@H](CCCCN)C(=O)N[C@@H](CCCNC(=N)N)C(=O)N[C@@H](CCC(=O)O)C(=O)N[C@@H](CCCNC(=N)N)C(=O)N[C@H](C(=O)N[C@@H](COP(=O)(O)O)C(=O)N[C@@H](CO)C(=O)N[C@@H](CC(C)C)C(=O)N[C@H](C(=O)N[C@@H](CCC(N)=O)C(N)=O)[C@@H](C)O)[C@@H](C)O)C(C)C [RANBP3_114–129 pS (p + 6)] (Ac-NYAPPVKRERT[pS]SLTQ-NH2)
- IC50 (KPNA4 ARM minor): 98 ± 7 µM
- Kd (KPNA4 ARM minor): 20 ± 1 µM
- IC50 (KPNA4 ARM Major): 2 ± 0.5 µM
- Kd (KPNA4 ARM Major): 0.22 ± 0.03 µM

SMILES: CC(=O)N[C@@H](CC(N)=O)C(=O)N[C@@H](Cc1ccc(O)cc1)C(=O)N[C@@H](C)C(=O)N1CCC[C@H]1C(=O)N1CCC[C@H]1C(=O)N[C@H](C(=O)N[C@@H](CCCCN)C(=O)N[C@@H](CCCNC(=N)N)C(=O)N[C@@H](CCC(=O)O)C(=O)N[C@@H](CCCNC(=N)N)C(=O)N[C@H](C(=O)N[C@@H](CCC(=O)O)C(=O)N[C@@H](CO)C(=O)N[C@@H](CC(C)C)C(=O)N[C@H](C(=O)N[C@@H](CCC(N)=O)C(N)=O)[C@@H](C)O)[C@@H](C)O)C(C)C [RANBP3_114–129 E (p + 6)] (Ac-NYAPPVKRERTESLTQ-NH2)
- IC50 (KPNA4 ARM minor): 385 ± 220 µM
- Kd (KPNA4 ARM minor): 80 ± 27 µM
- IC50 (KPNA4 ARM Major): 1.3 ± 0.1 µM
- Kd (KPNA4 ARM Major): 0.14 ± 0.01 µM
- PES (KPNA4 ARM): −3.1 (0.077)

Source: publication PMC10333884, “Large‐scale phosphomimetic screening identifies phospho‐modulated motif‐based protein interactions” (Molecular Systems Biology, 2023)
